# Measured values: the kinase profiling compilation of Christmann-Franck et al. (2016)
# Legend:
# Test in all cases: radiometric filter-binding kinase assay
# MAPK1 (human) = MAPK1 (human) (UniProt P28482)
# MAPK3 (human) = MAPK3 (human) (UniProt P27361)
# MARK3 (human) = MARK3 (human) (UniProt P27448)
# MARK4 (human) = MARK4 (human) (UniProt Q96L34)
# MST4 (human) = MST4 (human) (UniProt Q9P289)
# NTRK1 (human) = NTRK1 (human) (UniProt P04629)
# NUAK1 (human) = NUAK1 (human) (UniProt O60285)
# PAK6 (human) = PAK6 (human) (UniProt Q9NQU5)
# PLK1 (human) = PLK1 (human) (UniProt P53350)
# PRKCA (human) = PRKCA (human) (UniProt P17252)
# PRKCZ (human) = PRKCZ (human) (UniProt Q05513)
# RPS6KA1 KD1 KD2 (human) = RPS6KA1 KD1 KD2 (human) (UniProt Q15418)
# RPS6KA3 KD1 KD2 (human) = RPS6KA3 KD1 KD2 (human) (UniProt P51812)
# RPS6KA5 KD1 KD2 (human) = RPS6KA5 KD1 KD2 (human) (UniProt O75582)
# [1] = system: SGK1 (human), O00141 [S422D]
# SRC (human) = SRC (human) (UniProt P12931)
# STK3 (human) = STK3 (human) (UniProt Q13188)
# TAOK1 (human) = TAOK1 (human) (UniProt Q7L7X3)
# Chain of RPS6KA1 KD1 KD2 (human) (Q15418 whole entry, looked up): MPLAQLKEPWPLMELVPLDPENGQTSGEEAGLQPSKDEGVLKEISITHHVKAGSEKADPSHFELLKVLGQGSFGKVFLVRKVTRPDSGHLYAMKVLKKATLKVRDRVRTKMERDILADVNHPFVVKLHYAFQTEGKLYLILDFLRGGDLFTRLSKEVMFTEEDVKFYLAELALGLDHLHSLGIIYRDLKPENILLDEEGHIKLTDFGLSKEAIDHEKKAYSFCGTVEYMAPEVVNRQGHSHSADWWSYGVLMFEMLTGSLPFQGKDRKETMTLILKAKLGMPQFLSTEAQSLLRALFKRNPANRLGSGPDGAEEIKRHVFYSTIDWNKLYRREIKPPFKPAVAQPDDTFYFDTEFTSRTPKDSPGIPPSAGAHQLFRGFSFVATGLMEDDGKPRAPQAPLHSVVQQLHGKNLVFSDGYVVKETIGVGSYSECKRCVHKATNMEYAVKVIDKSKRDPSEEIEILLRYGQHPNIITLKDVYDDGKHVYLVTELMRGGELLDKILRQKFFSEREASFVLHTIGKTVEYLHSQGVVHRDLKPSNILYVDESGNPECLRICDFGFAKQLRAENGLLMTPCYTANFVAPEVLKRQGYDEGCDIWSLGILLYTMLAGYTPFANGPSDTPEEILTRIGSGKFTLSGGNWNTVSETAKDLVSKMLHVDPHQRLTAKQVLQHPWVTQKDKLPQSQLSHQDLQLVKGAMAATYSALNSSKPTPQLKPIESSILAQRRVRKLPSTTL
# Chain of SGK1 (human), O00141 [S422D] (O00141 whole entry S422D, looked up): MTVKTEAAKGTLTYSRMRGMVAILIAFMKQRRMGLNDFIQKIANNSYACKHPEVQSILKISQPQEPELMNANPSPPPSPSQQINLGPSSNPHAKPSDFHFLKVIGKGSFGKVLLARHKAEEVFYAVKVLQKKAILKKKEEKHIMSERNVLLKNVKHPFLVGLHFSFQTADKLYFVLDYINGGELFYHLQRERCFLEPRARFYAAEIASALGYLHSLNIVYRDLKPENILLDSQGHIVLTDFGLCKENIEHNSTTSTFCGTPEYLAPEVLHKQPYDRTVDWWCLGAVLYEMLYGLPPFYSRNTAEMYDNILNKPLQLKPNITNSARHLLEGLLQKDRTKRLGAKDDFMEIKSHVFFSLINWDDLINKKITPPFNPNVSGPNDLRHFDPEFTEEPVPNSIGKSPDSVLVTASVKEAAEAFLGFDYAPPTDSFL
# Chain of RPS6KA5 KD1 KD2 (human) (O75582 whole entry, looked up): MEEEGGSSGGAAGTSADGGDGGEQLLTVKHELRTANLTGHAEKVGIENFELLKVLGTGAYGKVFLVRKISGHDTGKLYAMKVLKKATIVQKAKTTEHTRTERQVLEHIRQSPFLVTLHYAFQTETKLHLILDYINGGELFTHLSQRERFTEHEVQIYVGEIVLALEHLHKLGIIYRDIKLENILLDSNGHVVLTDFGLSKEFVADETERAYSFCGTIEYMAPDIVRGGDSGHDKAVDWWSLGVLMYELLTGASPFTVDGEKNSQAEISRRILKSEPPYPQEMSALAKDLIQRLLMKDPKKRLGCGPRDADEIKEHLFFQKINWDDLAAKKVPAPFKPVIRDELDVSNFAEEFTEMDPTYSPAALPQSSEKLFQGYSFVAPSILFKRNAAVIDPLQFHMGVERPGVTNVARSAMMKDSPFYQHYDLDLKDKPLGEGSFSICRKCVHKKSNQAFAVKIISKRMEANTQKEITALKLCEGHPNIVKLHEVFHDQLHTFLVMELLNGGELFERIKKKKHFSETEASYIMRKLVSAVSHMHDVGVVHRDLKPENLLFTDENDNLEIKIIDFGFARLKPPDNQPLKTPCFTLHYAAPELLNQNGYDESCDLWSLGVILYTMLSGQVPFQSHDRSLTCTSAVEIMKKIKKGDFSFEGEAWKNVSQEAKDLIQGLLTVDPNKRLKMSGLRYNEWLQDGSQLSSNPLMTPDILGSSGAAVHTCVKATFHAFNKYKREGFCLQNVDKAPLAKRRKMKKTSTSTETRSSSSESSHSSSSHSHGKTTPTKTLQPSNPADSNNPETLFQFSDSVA
# Chain of STK3 (human) (Q13188 whole entry, looked up): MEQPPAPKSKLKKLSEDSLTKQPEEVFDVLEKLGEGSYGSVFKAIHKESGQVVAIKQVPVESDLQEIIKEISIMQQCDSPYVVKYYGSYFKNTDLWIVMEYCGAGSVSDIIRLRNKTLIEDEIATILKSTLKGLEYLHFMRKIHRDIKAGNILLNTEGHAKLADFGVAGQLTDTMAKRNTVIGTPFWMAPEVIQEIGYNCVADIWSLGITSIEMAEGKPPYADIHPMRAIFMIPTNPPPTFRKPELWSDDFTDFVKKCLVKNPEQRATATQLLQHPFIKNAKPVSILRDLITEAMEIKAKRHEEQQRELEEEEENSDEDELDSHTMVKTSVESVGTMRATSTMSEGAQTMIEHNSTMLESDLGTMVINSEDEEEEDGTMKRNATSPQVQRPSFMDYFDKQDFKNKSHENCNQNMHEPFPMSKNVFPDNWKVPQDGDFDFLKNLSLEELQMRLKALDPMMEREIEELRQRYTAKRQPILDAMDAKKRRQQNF
# Chain of SRC (human) (P12931 whole entry, looked up): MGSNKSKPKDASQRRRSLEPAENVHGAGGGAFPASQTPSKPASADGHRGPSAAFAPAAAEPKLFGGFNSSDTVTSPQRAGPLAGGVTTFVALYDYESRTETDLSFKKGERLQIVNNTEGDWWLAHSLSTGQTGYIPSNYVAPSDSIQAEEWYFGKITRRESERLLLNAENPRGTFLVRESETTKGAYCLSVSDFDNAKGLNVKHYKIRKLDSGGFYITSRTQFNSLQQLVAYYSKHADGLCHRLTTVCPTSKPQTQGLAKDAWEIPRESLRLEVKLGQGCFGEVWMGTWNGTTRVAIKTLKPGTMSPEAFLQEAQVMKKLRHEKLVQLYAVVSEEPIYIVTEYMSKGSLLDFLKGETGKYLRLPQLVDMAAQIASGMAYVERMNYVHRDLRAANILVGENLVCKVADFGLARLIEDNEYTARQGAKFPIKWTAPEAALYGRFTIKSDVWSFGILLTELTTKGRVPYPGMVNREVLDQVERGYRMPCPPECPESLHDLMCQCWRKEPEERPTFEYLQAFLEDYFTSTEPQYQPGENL
# Chain of MARK3 (human) (P27448 whole entry, looked up): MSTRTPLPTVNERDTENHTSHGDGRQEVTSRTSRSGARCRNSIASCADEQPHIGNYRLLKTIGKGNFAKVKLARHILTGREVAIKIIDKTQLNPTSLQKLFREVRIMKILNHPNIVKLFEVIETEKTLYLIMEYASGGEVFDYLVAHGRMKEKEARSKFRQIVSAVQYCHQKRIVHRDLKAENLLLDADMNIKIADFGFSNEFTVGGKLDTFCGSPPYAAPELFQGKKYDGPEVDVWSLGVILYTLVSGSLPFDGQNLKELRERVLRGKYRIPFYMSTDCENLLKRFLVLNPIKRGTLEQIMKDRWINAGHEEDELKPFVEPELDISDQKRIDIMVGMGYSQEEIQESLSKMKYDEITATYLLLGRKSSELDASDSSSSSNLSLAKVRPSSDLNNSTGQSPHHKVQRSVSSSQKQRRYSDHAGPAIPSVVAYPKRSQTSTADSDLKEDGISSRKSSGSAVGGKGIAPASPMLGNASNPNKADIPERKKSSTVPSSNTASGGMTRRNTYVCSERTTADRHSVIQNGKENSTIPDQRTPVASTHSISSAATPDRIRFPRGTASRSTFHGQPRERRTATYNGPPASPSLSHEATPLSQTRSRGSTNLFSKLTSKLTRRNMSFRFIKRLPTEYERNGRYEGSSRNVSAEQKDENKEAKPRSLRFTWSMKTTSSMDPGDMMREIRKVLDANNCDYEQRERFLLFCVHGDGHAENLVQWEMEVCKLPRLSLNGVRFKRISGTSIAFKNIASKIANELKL
# Chain of RPS6KA3 KD1 KD2 (human) (P51812 whole entry, looked up): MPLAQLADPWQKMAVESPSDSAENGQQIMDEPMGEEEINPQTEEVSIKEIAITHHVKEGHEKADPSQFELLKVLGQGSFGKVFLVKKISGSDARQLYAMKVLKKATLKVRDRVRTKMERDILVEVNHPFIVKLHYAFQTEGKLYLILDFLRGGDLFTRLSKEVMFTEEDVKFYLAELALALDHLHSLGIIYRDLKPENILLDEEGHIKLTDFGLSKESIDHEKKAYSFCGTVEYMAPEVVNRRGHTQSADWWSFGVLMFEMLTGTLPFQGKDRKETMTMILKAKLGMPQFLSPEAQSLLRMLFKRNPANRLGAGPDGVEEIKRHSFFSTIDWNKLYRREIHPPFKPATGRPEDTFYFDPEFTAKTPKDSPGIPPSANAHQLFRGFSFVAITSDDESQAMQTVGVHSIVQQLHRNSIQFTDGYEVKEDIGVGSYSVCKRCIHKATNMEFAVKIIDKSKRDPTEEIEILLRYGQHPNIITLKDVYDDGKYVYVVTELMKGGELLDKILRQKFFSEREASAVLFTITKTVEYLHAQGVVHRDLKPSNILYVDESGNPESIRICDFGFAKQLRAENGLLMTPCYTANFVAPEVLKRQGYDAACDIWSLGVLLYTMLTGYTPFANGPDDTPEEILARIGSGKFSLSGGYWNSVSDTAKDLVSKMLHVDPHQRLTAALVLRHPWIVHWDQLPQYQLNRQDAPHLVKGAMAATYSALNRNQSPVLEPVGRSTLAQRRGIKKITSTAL
# Chain of MST4 (human) (Q9P289 whole entry, looked up): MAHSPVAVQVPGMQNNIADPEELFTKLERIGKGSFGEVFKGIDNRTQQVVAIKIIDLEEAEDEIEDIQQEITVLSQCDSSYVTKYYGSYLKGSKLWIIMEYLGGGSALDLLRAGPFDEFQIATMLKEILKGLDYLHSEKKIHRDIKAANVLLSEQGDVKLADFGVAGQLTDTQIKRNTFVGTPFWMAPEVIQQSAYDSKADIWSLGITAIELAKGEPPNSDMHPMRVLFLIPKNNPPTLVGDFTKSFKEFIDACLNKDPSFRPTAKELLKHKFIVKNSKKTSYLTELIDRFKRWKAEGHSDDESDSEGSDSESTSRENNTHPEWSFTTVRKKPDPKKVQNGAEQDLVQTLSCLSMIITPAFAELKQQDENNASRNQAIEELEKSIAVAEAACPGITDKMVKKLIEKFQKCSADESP
structure (smiles),measurement,setting,value
CCCCCc1ccc(/C=C/[C@H](O)[C@@H](CO)NC)cc1,residual activity,MAPK1 (human); compound 1.0 µM,90%
same,residual activity,MAPK1 (human); compound 10.0 µM,100%
same,residual activity,MAPK3 (human); compound 1.0 µM,97%
same,residual activity,MAPK3 (human); compound 10.0 µM,85%
same,residual activity,MARK3 (human); compound 0.1 µM,101%
same,residual activity,MARK3 (human); compound 1.0 µM,107%
same,residual activity,MARK3 (human); compound 10.0 µM,105%
same,residual activity,MARK4 (human); compound 0.1 µM,90%
same,residual activity,MARK4 (human); compound 1.0 µM,89%
same,residual activity,MARK4 (human); compound 10.0 µM,93%
same,residual activity,MST4 (human); compound 0.1 µM,116%
same,residual activity,MST4 (human); compound 1.0 µM,96%
same,residual activity,MST4 (human); compound 10.0 µM,108%
same,residual activity,NTRK1 (human); compound 0.1 µM,103%
same,residual activity,NTRK1 (human); compound 1.0 µM,110%
same,residual activity,NTRK1 (human); compound 10.0 µM,86%
same,residual activity,NUAK1 (human); compound 0.1 µM,105%
same,residual activity,NUAK1 (human); compound 1.0 µM,108%
same,residual activity,NUAK1 (human); compound 10.0 µM,101%
same,residual activity,PAK6 (human); compound 0.1 µM,105%
same,residual activity,PAK6 (human); compound 1.0 µM,108%
same,residual activity,PAK6 (human); compound 10.0 µM,103%
same,residual activity,PLK1 (human); compound 0.1 µM,106%
same,residual activity,PLK1 (human); compound 1.0 µM,94%
same,residual activity,PLK1 (human); compound 10.0 µM,96%
same,residual activity,PRKCA (human); compound 0.1 µM,96%
same,residual activity,PRKCA (human); compound 1.0 µM,88%
same,residual activity,PRKCA (human); compound 10.0 µM,89%
same,residual activity,PRKCZ (human); compound 0.1 µM,106%
same,residual activity,PRKCZ (human); compound 1.0 µM,108%
same,residual activity,PRKCZ (human); compound 10.0 µM,92%
same,residual activity,RPS6KA1 KD1 KD2 (human); compound 0.1 µM,95%
same,residual activity,RPS6KA1 KD1 KD2 (human); compound 1.0 µM,98%
same,residual activity,RPS6KA1 KD1 KD2 (human); compound 10.0 µM,81%
same,residual activity,RPS6KA3 KD1 KD2 (human); compound 0.1 µM,87%
same,residual activity,RPS6KA3 KD1 KD2 (human); compound 1.0 µM,95%
same,residual activity,RPS6KA3 KD1 KD2 (human); compound 10.0 µM,81%
same,residual activity,RPS6KA5 KD1 KD2 (human); compound 0.1 µM,110%
same,residual activity,RPS6KA5 KD1 KD2 (human); compound 1.0 µM,104%
same,residual activity,RPS6KA5 KD1 KD2 (human); compound 10.0 µM,95%
same,residual activity,[1]; compound 0.1 µM,83%
same,residual activity,[1]; compound 1.0 µM,87%
same,residual activity,[1]; compound 10.0 µM,78%
same,residual activity,SRC (human); compound 0.1 µM,105%
same,residual activity,SRC (human); compound 1.0 µM,100%
same,residual activity,SRC (human); compound 10.0 µM,111%
same,residual activity,STK3 (human); compound 0.1 µM,96%
same,residual activity,STK3 (human); compound 1.0 µM,90%
same,residual activity,STK3 (human); compound 10.0 µM,94%
same,residual activity,TAOK1 (human); compound 0.1 µM,102%
same,residual activity,TAOK1 (human); compound 1.0 µM,108%
same,residual activity,TAOK1 (human); compound 10.0 µM,91%
